Measured values reported in patent US7659240B2, “Mucin immobilized chromatography” (Vertex Pharmaceuticals Incorporated, priority 2002, dated 2010).
Values joined by “and” are separate entries in the source; they are usually repeats but may differ in a detail not shown here. Identical values can stand only once. Counter-ions that a name gives are not always drawn. Like-named read-outs stand apart in the source and are kept apart here.

Legend:
[1] = tested on: mucin immobilized to IAM.PC.DD2; assay: HPLC on MIC column (2:1 mucin to PC IAM particles): retention time, k′MIC, derived Km and Peff MIC; conditions: for log k′MIC / K′MIC: MIC 2:1; for k′MIC / Retention Time: MIC column 2:1 mucin:IAM, MPS pH 7.4; for Retention Time: isocratic 0.3 ml/min; for Dm: membrane diffusion coefficient calculated from molecular weight; for Peff MIC (×10^−4 cm/s): determined by linear equation
Method: [formula] where Dm is the membrane diffusion coefficient of the solute, Km is the membrane equilibrium constant, and L is the membrane thickness (Stein, W., Transport and Diffusion Across Cell Membranes, Academic Press, Orlando, Fla. (1986)). […] Since molecular weight, MW, is proportional to molecular size, Dm may also written as,
[formula] Thus, Dm can be calculated from the molecular weight. Furthermore, Km is calculated by the following equation, Km−(Vm/Vs)k′, [4] where Vm is the volume of the mobile phase, Vs is the internal volume of the stationary phase, and k′ is the partition ratio (Pidgeon and Ong, Chemtech. June, 38-48 (1995)). The partition ratio is determined by the equation, k′−(tr−to)/to, [5] where tr is the retention time of the drug and to is the void volume of the column. Both tr and to can be experimentally determined in order to obtain k′.
Equation 2 can be used to determine Km for a given MIC medium. Both Dm and L are known from the discussion above, and Peff can be calculated for various drugs having known in vivo absorption. For example, a number of drug permeability coefficients, Peff, derived from in vivo experiments are listed in literature. […] See Example 5 below.

[2] = from literature; cited from earlier work
[3] = cited from earlier work
[4] = single-pass perfusions, cited from earlier work
[5] = tested on: mucin immobilized to PC IAM particles; assay: pH and mucin layer thickness dependence of partition ratio on MIC columns (1:2 and 2:1); conditions: for k′MIC (1:2): column 1:2, 0.32 μm; for k′MIC (1:2) / k′MIC (2:1): pH 7, Table 9; for (1:2) k′ (pH 3) / (1:2) k′ (pH 5) / (1:2) k′ (pH 7): column 1:2 mucin to PC IAM, 0.32 μm mucin layer; for (1:2) k′ (pH 3) / (2:1) k′ (pH 3): mobile phase pH 3; for (1:2) k′ (pH 5) / (2:1) k′ (pH 5): mobile phase pH 5; for (1:2) k′ (pH 7) / (2:1) k′ (pH 7): mobile phase pH 7; for k′MIC (2:1): column 2:1, 0.36 μm; for (2:1) k′ (pH 3) / (2:1) k′ (pH 5) / (2:1) k′ (pH 7): column 2:1 mucin to PC IAM, 0.36 μm mucin layer
Method: Samples were dissolved in mobile phase solution and filtered (filter pore size, 0.45 μm) prior to injection. […] From this measurement and a measurement of the void volume (t0) the k′MIC could be determined. In addition, from the molecular weight of the compounds, Dm could be determined. These compounds, with the exceptions noted below, were used to generate the column constant (Vm/Vs).
For these reasons, the influence of pH on drug retention times was measured on columns having two different mucin layer thicknesses, 0.32 μm (column prepared with a 1:2 wt % of mucin to PC IAM particles) and 0.36 μm (column prepared with a 2:1 wt % of mucin to PC IAM particles)(Table 8). […] The influence of pH on drug retention time was measured by using different mobile phase buffers adjusted to pH 3, 5 or 7 on either the 0.32 μm or 0.36 μm column.
Capacity factors were calculated from drug retention times collected on columns having two different mucin layer thicknesses, 0.32 μm (column prepared with a 1:2 wt % of mucin to PC IAM particles) and 0.36 μm (column prepared with a 2:1 wt % of mucin to PC IAM particles).

Caco-2 = conditions: from literature, cited from earlier work

In the case of Cc1cc(=O)n(-c2ccccc2)n1C [Antipyrine], the “δ = log k′MIC − log k′IAM” value [1] is reported as 1.91, the “log k′MIC” value [1] is reported as 1.89 and the “K′MIC” value ([1]; Table 5) is reported as 77.57. For the same compound, the “k′MIC” value [1] was 77.5714, the “Retention Time” value [1] was 5.5 and the Dm [1] was 0.0053. The “log k′IAM” value [2] was −0.02, the “% Absorbed” value ([3]; in vivo) was 100% and the “Peff Loc-I-Gut (×10^−4 cm/s)” value ([4]; Table 5) was 5.6 ×10^−4 cm/s. For the same compound, the “Peff Loc-I-Gut (×10^−4 cm/s)” value ([4]; Table 9) was 5.6 ×10^−4 cm/s, the “k′MIC (1:2)” value [5] was 50.7 and the “(1:2) k′ (pH 3)” value [5] was 54.00. The “(1:2) k′ (pH 5)” value [5] was 54.00, the “(1:2) k′ (pH 7)” value [5] was 50.67 and the “k′MIC (2:1)” value [5] was 40.7. For the same compound, the “(2:1) k′ (pH 3)” value [5] was 40.43, the “(2:1) k′ (pH 5)” value [5] was 39.00 and the “(2:1) k′ (pH 7)” value [5] was 40.67.
For COCCc1ccc(OCC(O)CNC(C)C)cc1 (stereo not drawn) [Metoprolol], the “δ = log k′MIC − log k′IAM” value [1] was 1.14, the “log k′MIC” value [1] was 1.64 and the “K′MIC” value ([1]; Table 5) was 43. For the same compound, the “K′MIC” value ([1]; Table 6) was 43.29, the “k′MIC” value [1] was 43.2857 and the “Retention Time” value [1] was 3.1. The “Peff MIC (×10^−4 cm/s)” value ([1]; Table 5) was 1.21 ×10^−4 cm/s, the “Peff MIC (×10^−4 cm/s)” value ([1]; Table 6) was 1.21 ×10^−4 cm/s and the Dm [1] was 0.0015. The “Peff Caco-2 (×10^−6 cm/s)” value (Caco-2; Table 5) was 23.7 ×10^−6 cm/s, the “Peff Caco-2 (×10^−6 cm/s)” value (Caco-2; Table 6) was 23.7 ×10^−6 cm/s and the “k′MIC (1:2)” value [5] was 47.3. For the same compound, the “(1:2) k′ (pH 3)” value [5] was 50.67, the “(1:2) k′ (pH 5)” value [5] was 50.67 and the “(1:2) k′ (pH 7)” value [5] was 47.33. The “k′MIC (2:1)” value [5] was 35.7, the “(2:1) k′ (pH 3)” value [5] was 36.14 and the “(2:1) k′ (pH 5)” value [5] was 41.86. For the same compound, the “(2:1) k′ (pH 7)” value [5] was 35.67.
With CC(C)NCC(O)COc1cccc2ccccc12 (stereo not drawn) [Propranolol] the “δ = log k′MIC − log k′IAM” value [1] was 0.10, the “log k′MIC” value [1] was 1.85 and the “K′MIC” value ([1]; Table 5) was 70.43. For the same compound, the “K′MIC” value ([1]; Table 6) was 70.43, the “k′MIC” value [1] was 70.4286 and the “Retention Time” value [1] was 5.0. The “Peff MIC (×10^−4 cm/s)” value ([1]; Table 5) was 4.24 ×10^−4 cm/s, the “Peff MIC (×10^−4 cm/s)” value ([1]; Table 6) was 4.24 ×10^−4 cm/s and the Dm [1] was 0.0034. The “Peff Caco-2 (×10^−6 cm/s)” value (Caco-2; Table 5) was 21.8 ×10^−6 cm/s, the “Peff Caco-2 (×10^−6 cm/s)” value (Caco-2; Table 6) was 21.8 ×10^−6 cm/s and the “log k′IAM” value [2] was 1.75. The “(1:2) k′ (pH 3)” value [5] was 75.67, the “(1:2) k′ (pH 5)” value [5] was 92.33 and the “(1:2) k′ (pH 7)” value [5] was 99.00. For the same compound, the “(2:1) k′ (pH 3)” value [5] was 49.00, the “(2:1) k′ (pH 5)” value [5] was 59.00 and the “(2:1) k′ (pH 7)” value [5] was 99.00.
In the case of CC(C)(C)NCC(O)c1cc(O)cc(O)c1 (stereo not drawn) [Terbutaline], the “δ = log k′MIC − log k′IAM” value [1] is reported as 1.14, the “log k′MIC” value [1] is reported as 1.64 and the “K′MIC” value ([1]; Table 5) is reported as 43. The “K′MIC” value ([1]; Table 6) was 43.29, the “k′MIC” value [1] was 43.2857 and the “Retention Time” value [1] was 3.1. The “Peff MIC (×10^−4 cm/s)” value ([1]; Table 5) was 1.21 ×10^−4 cm/s, the “Peff MIC (×10^−4 cm/s)” value ([1]; Table 6) was 1.21 ×10^−4 cm/s and the Dm [1] was 0.0036. The “Peff Caco-2 (×10^−6 cm/s)” value (Caco-2; Table 5) was 0.47 ×10^−6 cm/s, the “Peff Caco-2 (×10^−6 cm/s)” value (Caco-2; Table 6) was 0.47 ×10^−6 cm/s and the “log k′IAM” value [2] was 0.50. For the same compound, the “% Absorbed” value ([3]; Table 5) was 60%, the “% Absorbed” value ([3]; Table 6) was 60% and the “% Absorbed” value ([3]; Table 7) was 60%. For the same compound, the “Peff Loc-I-Gut (×10^−4 cm/s)” value ([4]; Table 5) was 0.3 ×10^−4 cm/s, the “Peff Loc-I-Gut (×10^−4 cm/s)” value ([4]; Table 6) was 0.3 ×10^−4 cm/s and the “Peff Loc-I-Gut (×10^−4 cm/s)” value ([4]; Table 9) was 0.3 ×10^−4 cm/s. For the same compound, the “k′MIC (1:2)” value [5] was 39, the “(1:2) k′ (pH 3)” value [5] was 45.67 and the “(1:2) k′ (pH 5)” value [5] was 49.00. For the same compound, the “(1:2) k′ (pH 7)” value [5] was 39.00, the “k′MIC (2:1)” value [5] was 35.7 and the “(2:1) k′ (pH 3)” value [5] was 34.71. For the same compound, the “(2:1) k′ (pH 5)” value [5] was 37.57 and the “(2:1) k′ (pH 7)” value [5] was 35.67.
For NC(=O)N1c2ccccc2C=Cc2ccccc21 [carbamazepine], the “K′MIC” value ([1]; Table 5) was 59.00, the “K′MIC” value ([1]; Table 6) was 59.00 and the “k′MIC” value [1] was 59.0000. The “Retention Time” value [1] was 4.2, the “Peff MIC (×10^−4 cm/s)” value ([1]; Table 5) was 2.96 ×10^−4 cm/s and the “Peff MIC (×10^−4 cm/s)” value ([1]; Table 6) was 2.96 ×10^−4 cm/s. The Dm [1] was 0.0042, the “Peff Caco-2 (×10^−6 cm/s)” value (Caco-2; Table 5) was 19.9 ×10^−6 cm/s and the “Peff Caco-2 (×10^−6 cm/s)” value (Caco-2; Table 6) was 19.9 ×10^−6 cm/s. For the same compound, the “Peff Loc-I-Gut (×10^−4 cm/s)” value ([4]; Table 5) was 4.3 ×10^−4 cm/s and the “Peff Loc-I-Gut (×10^−4 cm/s)” value ([4]; Table 6) was 4.3 ×10^−4 cm/s.
In the case of C[C@]12C[C@H](O)[C@H]3[C@@H](CCC4=CC(=O)CC[C@@]43C)[C@@H]1CC[C@@H]2C(=O)CO [corticosterone], the “δ = log k′MIC − log k′IAM” value [1] is reported as 0.18, the “log k′MIC” value [1] is reported as 1.78 and the “k′MIC” value [1] is reported as 60.4286. The “Retention Time” value [1] was 4.3, the Dm [1] was 0.0029 and the “log k′IAM” value [2] was 1.60. For the same compound, the “% Absorbed” value ([3]; Table 7) was 100%, the “(1:2) k′ (pH 3)” value [5] was 24.00 and the “(1:2) k′ (pH 5)” value [5] was 22.33. For the same compound, the “(1:2) k′ (pH 7)” value [5] was 24.00, the “(2:1) k′ (pH 3)” value [5] was 20.43 and the “(2:1) k′ (pH 5)” value [5] was 20.43. For the same compound, the “(2:1) k′ (pH 7)” value [5] was 24.00.
With CCOC(=O)[C@H](CCc1ccccc1)N[C@@H](C)C(=O)N1CCC[C@H]1C(=O)O [enalapril maleate] the “K′MIC” value ([1]; Table 5) was 35.86, the “k′MIC” value [1] was 35.8571 and the “Retention Time” value [1] was 2.6. For the same compound, the “Retention Time” value ([1]; listed as Enalapril maleate) was 7.8, the “k′MIC” value ([1]; listed as Enalapril maleate) was 110.429 and the “Peff MIC (×10^−4 cm/s)” value ([1]; Table 5) was 0.38 ×10^−4 cm/s. For the same compound, the Dm [1] was 0.0020, the “stability during the HPLC analyses” value ([1]; two peaks, hydrolyzed and non-hydrolyzed forms) was “hydrolyzed to enalaprilat” and the “% Absorbed” value ([3]; Table 5) was 60%. For the same compound, the Bioavailability ([3]; footnotes of Table 4 that tell the two cimetidine and two enalapril maleate lines apart) was “^4Bioavailability = 60%;”, the percent absorption value ([3]; reported in literature, either of two values) was 60 and 100 and the “Peff Loc-I-Gut (×10^−4 cm/s)” value ([4]; Table 5) was 0.2 ×10^−4 cm/s. For the same compound, the “Peff Loc-I-Gut (×10^−4 cm/s)” value ([4]; Table 9) was 0.2 ×10^−4 cm/s, the “k′MIC (1:2)” value [5] was 34 and the “(1:2) k′ (pH 3)” value [5] was 27.33. For the same compound, the “(1:2) k′ (pH 5)” value [5] was 37.33, the “(1:2) k′ (pH 7)” value [5] was 34.00 and the “k′MIC (2:1)” value [5] was 20.7. The “(2:1) k′ (pH 3)” value [5] was 31.86, the “(2:1) k′ (pH 5)” value [5] was 21.86 and the “(2:1) k′ (pH 7)” value [5] was 20.67.
